Measurements published in publication PMC12128972, “TYRA-300, an FGFR3-selective inhibitor, promotes bone growth in two FGFR3-driven models of chondrodysplasia” (JCI Insight, 2025).
“And” between values parts separate entries of the source, which are not always exact repeats. Equal values may be shown once.

Key:
[1] = test system: lumbar vertebrae of Fgfr3^Y367C/+ mice; test: Fgfr3Y367C/+ mice: lumbar vertebrae and intervertebral discs (calipers, histology); type: in vivo, mouse; settings: 1.2 mg/kg s.c. daily for 15 days
Protocol: Individuals with ACH frequently experience back pain and may undergo multiple spinal surgeries throughout their lives ([40]). Kyphosis and scoliosis are common with ACH and are also observed in the Fgfr3^Y367C/+ mouse model ([40]), and Fgfr3 is expressed in the intervertebral discs of Fgfr3^Y367C/+ mice ([28]). To determine how TYRA-300 affects the vertebrae and intervertebral discs, the spine was analyzed in the Fgfr3^Y367C/+ mice treated with TYRA-300 or vehicle.
Whole body x-ray images were taken of all animals by Faxitron specimen radiography MX-20 (Faxitron X-Ray LLC) following terminal sacrifice. The length of the L4–L6 lumbar vertebra segment was also measured for each animal using calipers, and the height of the L5 vertebral body was measured from Alcian blue/Sirius red images. Long bones and the skull were then excised, and their dimensions were measured using calipers (VWRi819-0013, VWR International). The transverse and sagittal diameters of the foramen magnum were also measured using calipers for the Fgfr3^Y367/+ model, and measured using the μCT images for the Fgfr3^N534K/+ model.
The right femur and lumbar vertebrae segment L4–L6 were collected and fixed in 4% paraformaldehyde, decalcified with ethylenediaminetetraacetic acid (EDTA) 0.5 M (pH 8) for 2 or 3 weeks, and embedded in paraffin. Serial paraffin sections of 5 μm were stained with hematoxylin, eosin, and Safranin O. For immunohistochemistry, sections were labeled with antibodies against collagen type X (BIOCYC ref. [1]-CO097-05-RUO, 1:100 dilution), collagen type I (Novotec, 20151, dilution 1:1,000), pERK (Cell Signaling, 4370S, dilution 1:1,000), and PCNA (Abcam, GR3195972-6, 1:500 dilution) using the Dako Envision Kit. Images were captured with an Olympus PD70-IX2-UCB microscope and CellSens software (Olympus Life Science Solutions). Cells were counted using ImageJ software (NIH, Laboratory for Optical Computational Instrumentation).

wild-type C57BL/6J mice = test: Wild-type mouse growth velocity study; type: in vivo; set-up: nasoanal length, individual mice: unit not given here; settings: for femur length by calipers, individual mice / tibia length by calipers, individual mice: final day of treatment (8 weeks of age), in mm (unit assumed); for femurs longer than vehicle / tibias longer than vehicle: 4 weeks of treatment
Protocol: To determine the in vivo effect of FGFR3 inhibition under normal physiologic conditions, TYRA-300 was tested in a growth velocity assay in wild-type mice ([32]). In this study, wild-type C57BL/6J mice were dosed orally with TYRA-300 once daily from 4 to 8 weeks of age. […] Based on the doses evaluated for infigratinib in oncology and ACH, a lower dose was thought to be more appropriate for long-term treatment of pediatric growth–related conditions. We therefore initially explored doses in the 8 to 14 mg/kg range in this model. […] Specifically, after treatment with 12 mg/kg TYRA-300, the tibias were on average 3.9% longer than the tibias of mice that received treatment with vehicle, and the femurs were on average 5.0% longer after treatment; additionally, with 14 mg/kg TYRA-300, the tibias were 6.4% longer and the femurs were 8.2% longer. There was no difference in body weight among the treatment groups (data not shown).
At 21 days of age, female C57BL/6J mice (The Jackson Laboratory) were subject to nasoanal length and nasotail length measurement while under anesthesia. Tail length was calculated by subtracting nasoanal length from nasotail length. Body weights were also recorded. One week later, at 28 days of age, nasoanal lengths and body weights were measured again and mice were randomized to treatment groups of 12 mice per group according to nasoanal length. TYRA-300 was dissolved in 30% hydroxypropyl-β-cyclodextrin for administration by oral gavage. Mice were dosed orally with TYRA-300 or vehicle control once daily (QD) for 4 weeks, and nasoanal lengths and body weights were monitored once weekly, along with daily clinical observations. Mouse tibias and femurs were collected and measured with calipers at the end of the study.

[2] = 12 mg/kg oral daily from week 4, week 3 of age (before treatment)
[3] = 12 mg/kg oral daily from week 4, week 4 of age (start of treatment)
[4] = 12 mg/kg oral daily from week 4, week 5 of age
[5] = 12 mg/kg oral daily from week 4, week 6 of age
[6] = 12 mg/kg oral daily from week 4, week 7 of age
[7] = 12 mg/kg oral daily from week 4, week 8 of age
[8] = 14 mg/kg oral daily from week 4, week 3 of age (before treatment)
[9] = 14 mg/kg oral daily from week 4, week 4 of age (start of treatment)

With `C[C@@H](Oc1ccc2[nH]nc(-c3ccc(N4CC5(C4)CN(S(C)(=O)=O)C5)nc3)c2c1)c1c(Cl)cncc1Cl` [TYRA-300] the “height of the vertebral bodies vs vehicle” value [1] was “increased the height of the vertebral bodies”, the “increase in L4-L6 lumbar vertebrae segment length vs vehicle” value [1] was 23.49% and the “shape of the intervertebral disc” value [1] was “decreasing the height and increasing the lateral width of the nucleus pulposus”. The “nasoanal length and tibia and femur length vs vehicle” value (wild-type C57BL/6J mice; 8 mg/kg and 10 mg/kg, data not shown, P < 0.05) was “significant increases”, the “tail length and tibia and femur length vs vehicle” value (wild-type C57BL/6J mice; 12 mg/kg and 14 mg/kg oral once daily, 4 weeks) was “increased significantly and dose-dependently” and the “nasoanal length, individual mice” value (wild-type C57BL/6J mice; [2]) was 6.5 and 7.5 (2×) and 7.3 and 7 (3×) and 6.8 (2×) and 6.2 and 7.2 and 6. For the same molecule, the “tail length, individual mice” value (wild-type C57BL/6J mice; [2]) was 5.7 and 6.3 and 6 (2×) and 6.2 and 5.6 and 5.5 and 6.4 and 6.6 and 5.9 and 5.3 and 5.8, the “nasoanal length, individual mice” value (wild-type C57BL/6J mice; [3]) was 7.7 (3×) and 8.2 and 7.8 (3×) and 8 (2×) and 7.2 and 8.3 and 7.3 and the “tail length, individual mice” value (wild-type C57BL/6J mice; [3]) was 5.9 and 7.2 (2×) and 6.9 (2×) and 6.7 and 6.8 and 6.3 and 6.4 (2×) and 5.7 and 6.5. For the same molecule, the “nasoanal length, individual mice” value (wild-type C57BL/6J mice; [4]) was 8.2 and 8.6 (3×) and 8.5 (2×) and 8.7 and 8.3 (3×) and 9 and 7.7, the “tail length, individual mice” value (wild-type C57BL/6J mice; [4]) was 6.8 and 7.2 (3×) and 7.3 (2×) and 7.1 (2×) and 6.7 and 7.4 and 7.8 and 6.5 and the “nasoanal length, individual mice” value (wild-type C57BL/6J mice; [5]) was 8.6 (2×) and 8.8 (2×) and 8.7 (3×) and 9.2 and 9.1 and 9 and 9.3 and 8.4. The “tail length, individual mice” value (wild-type C57BL/6J mice; [5]) was 7.3 and 7.8 (2×) and 7.9 and 7.7 (3×) and 7.6 (2×) and 8 and 8.2 and 7, the “nasoanal length, individual mice” value (wild-type C57BL/6J mice; [6]) was 8.8 and 9.1 (2×) and 9 (3×) and 9.4 and 9.3 and 9.5 and 10 and 9.2 and 8.7 and the “tail length, individual mice” value (wild-type C57BL/6J mice; [6]) was 7.9 (2×) and 8 (3×) and 8.2 and 7.7 (2×) and 8.3 and 8.5 and 7.3 and 8.1. The “nasoanal length, individual mice” value (wild-type C57BL/6J mice; [7]) was 9.2 (3×) and 9.3 (5×) and 9.4 and 9.5 and 10 and 8.8, the “tail length, individual mice” value (wild-type C57BL/6J mice; [7]) was 7.8 and 8.2 and 7.9 and 8.1 (4×) and 8.3 and 8 and 8.5 and 8.6 and 7.5 and the “femur length by calipers, individual mice” value (wild-type C57BL/6J mice; 12 mg/kg oral daily) was 13.78 and 13.37 and 14.79 and 13.97 and 13.86 and 12.93 and 14.23 and 13.91 and 13.8 and 13.51 and 13.98. For the same molecule, the “tibia length by calipers, individual mice” value (wild-type C57BL/6J mice; 12 mg/kg oral daily) was 15.08 and 16.34 and 16.3 and 17.19 and 16.6 and 15.75 and 16.27 and 16.06 and 16.41 and 16.46 and 17, the “femurs longer than vehicle” value (wild-type C57BL/6J mice; 12 mg/kg oral once daily) was 5.0% and the “tibias longer than vehicle” value (wild-type C57BL/6J mice; 12 mg/kg oral once daily) was 3.9%. The “nasoanal length, individual mice” value (wild-type C57BL/6J mice; [8]) was 6.6 and 7.6 (2×) and 7.3 (2×) and 6.7 and 6.3 and 7.1 and 7.2 (2×) and 6.8 and 6.9, the “tail length, individual mice” value (wild-type C57BL/6J mice; [8]) was 5.5 (2×) and 6 (2×) and 6.4 (2×) and 6.1 and 5.3 and 5.7 and 5.6 (3×) and the “nasoanal length, individual mice” value (wild-type C57BL/6J mice; [9]) was 7.7 (2×) and 8.2 (2×) and 7.8 (4×) and 8 (2×) and 7.3 and 7.2. For the same molecule, the “tail length, individual mice” value (wild-type C57BL/6J mice; [9]) was 6.3 and 6.9 (2×) and 7 (2×) and 6.8 and 6 (2×) and 6.4 (2×) and 6.6 and 6.7, the “nasoanal length, individual mice” value (wild-type C57BL/6J mice; 14 mg/kg oral daily from week 4, week 5 of age) was 8.7 (2×) and 8.5 and 8.6 and the “tail length, individual mice” value (wild-type C57BL/6J mice; 14 mg/kg oral daily from week 4, week 5 of age, in cm (unit assumed)) was 7 and 7.6 and 7.4 and 7.5. For the same molecule, the “femur length by calipers, individual mice” value (wild-type C57BL/6J mice; 14 mg/kg oral daily) was 14.47 and 14.13 and 13.58 and 13.93 and 13.04 and 14.9 and 14.56 and 14.74 and 14.08 and 15.12 and 14.91 and 13.6, the “tibia length by calipers, individual mice” value (wild-type C57BL/6J mice; 14 mg/kg oral daily) was 16.57 and 16.39 and 16.89 and 16.61 and 16.95 and 17.24 and 16.1 and 17.47 and 16.69 and 16.27 and the “increase in nasoanal length vs vehicle” value (wild-type C57BL/6J mice; 14 mg/kg oral once daily, 4 to 8 weeks of age) was 7.3%. The “femurs longer than vehicle” value (wild-type C57BL/6J mice; 14 mg/kg oral once daily) was 8.2%, the “tibias longer than vehicle” value (wild-type C57BL/6J mice; 14 mg/kg oral once daily) was 6.4% and the “body weight among the treatment groups” value (wild-type C57BL/6J mice; oral once daily, data not shown) was “no difference”.
